Measurements from PMC12036578, “Expression and molecular characterization of an intriguing hyaluronan synthase (HAS) from the symbiont “Candidatus Mycoplasma liparidae” in snailfish” (PeerJ, 2025).
Read-outs that look alike come from different tables or passages of the source.

Columns and labels:
snHAS [1] = assay: HA formation by HABP-HRP HA detection kit (TMB, OD450), Michaelis-Menten fit; assay type: biochemical, Candidatus Mycoplasma liparidae; conditions: 15 mM MgCl2, 50 mM PBS, 5 mM DTT, 37 °C, 30 µM enzyme, read-out: snHASE173D
From the text: HA formation by HABP-HRP HA detection kit (TMB, OD450), Michaelis-Menten fit on snHAS

snHAS [2] = assay: as above; assay type: biochemical, Candidatus Mycoplasma liparidae; conditions: 15 mM MgCl2, 50 mM PBS, 5 mM DTT, 37 °C, 30 µM enzyme

Structure (SMILES) | Km (snHAS [1]; 1 mM UDP-GlcA fixed) [µM] | Km (snHAS [2]; 1 mM UDP-GlcA fixed) [µM] | Km (snHAS [1]; 1 mM UDP-GlcNAc fixed) [µM] | Km (snHAS [2]; 1 mM UDP-GlcNAc fixed) [µM]
CC(=O)N[C@H]1[C@@H](OP(=O)(O)OP(=O)(O)OC[C@H]2O[C@@H](n3ccc(=O)[nH]c3=O)[C@H](O)[C@@H]2O)O[C@H](CO)[C@@H](O)[C@@H]1O [UDP-GlcNAc] | 410 ± 70 | 258 ± 45 | – | –
O=C(O)[C@H]1O[C@H](OP(=O)(O)OP(=O)(O)OC[C@H]2O[C@@H](n3ccc(=O)[nH]c3=O)[C@H](O)[C@@H]2O)[C@H](O)[C@@H](O)[C@@H]1O [UDP-GlcA] | – | – | 210 ± 20 | 39 ± 5
